PMC8746696 (Molecules, 2021)
Where two headings read alike, the source gives them in different places.

What was measured:
[1] = Intrinsic cytotoxicity, EZ4U assay, HeLa; conditions: human, HeLa cells
Procedure: (§1) Next, we examined the intrinsic cytotoxicity of the compounds on HeLa cervical cancer cells and human embryonic kidney derived cells HEK293A.
(§2) Cytotoxicity of the compounds to HeLa (human cervical cancer) and HEK293A (human embryonic kidney) cell lines was examined using the EZ4U Cell Proliferation and Cytotoxicity Assay (Biomedica, Vienna, Austria), according to the manufacturer’s protocols. The cells were grown in Iscove’s modified Dulbecco’s medium (IMDM) with 40 μg/mL gentamicin, 50 IU/mL penicillin, 50 μg/mL streptomycin (MP Biomedicals, Waltham, MA, USA), and 10% of fetal bovine serum (Biolot, Saint Petersburg, Russia) in a 5% CO2 atmosphere. After the formation of a 30–50%monolayer, the tested compounds were added to the medium. […] The volume of the added reagents was 1/100 of the total volume of the culture medium, and the amount of DMSO was 1% of the final volume. Control cells were grown in the presence of 1% DMSO. The cell culture was monitored for three days.

[2] = Intrinsic cytotoxicity, EZ4U assay, HEK293A; conditions: human, HEK293A cells
Procedure: as §1, §2

[3] = biological target: T1, recombinant human TDP2 (Homo sapiens, UniProt O95551); test: Gel-based TDP2 activity assay (removal of 5'-tyrosine from oligonucleotide, PAGE); assay type: biochemical; design: key to Tdp2 activity, c 200 µM / Tdp2 (inhibitor concentration 1 mM): TDP2 active (+); -: inactive (−); conditions: for Tdp2 activity, c 200 µM: c 200 µM (Table S3 head); for Tdp2 (inhibitor concentration 1 mM) / remaining activity at 1000 µM: inhibitor 1 mM; for remaining activity at 1000 µM: residual enzyme activity, read-out: TDP2 (Inhibitor Concentration 1 mM), residual activity of TDP2
T1 sequence (O95551 1-362): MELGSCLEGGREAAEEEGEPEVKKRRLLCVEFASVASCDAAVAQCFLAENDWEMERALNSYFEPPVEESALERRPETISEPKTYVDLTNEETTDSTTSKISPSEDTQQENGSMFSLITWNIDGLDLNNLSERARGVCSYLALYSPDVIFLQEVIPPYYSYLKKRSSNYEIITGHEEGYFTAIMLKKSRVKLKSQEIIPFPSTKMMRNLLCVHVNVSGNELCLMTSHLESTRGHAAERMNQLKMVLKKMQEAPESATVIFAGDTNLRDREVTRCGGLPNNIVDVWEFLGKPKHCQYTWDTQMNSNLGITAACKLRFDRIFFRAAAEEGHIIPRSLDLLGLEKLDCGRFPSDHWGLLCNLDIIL
Procedure: We investigated the activity against the TDP2 enzyme for compounds 4–10, 12–15, and 17–19 (Table 1). TDP2 was tested for its ability to eliminate tyrosine residue from the 5’-end of the oligonucleotide substrate. The TDP2 reaction products were separated under denaturing conditions in polyacrylamide gel (PAGE). […] Note that as different assays formats were used for TDP1 and TDP2 inhibition, the value of these assays cannot be directly compared. A paper on derivatives of usnic acid as effective TDP1 inhibitors and mild inhibitors of TDP2 was recently published. […] More inhibitors of this enzyme have also been reported in the literature. Obviously, further work for increasing activity against TDP2 is needed.
The oligonucleotide with tyrosine residue on the 5′-end (5′-tyrosine-AAC GTC AGG GTC TTC C-FAM-3′) was used for the TDP2 enzyme activity assay. The TDP2 reaction products were separated under denaturing conditions in polyacrylamide gel (PAGE). The reaction was performed in a final volume of 20 μL using 100 nM substrate incubated with 200 nM recombinant human TDP2 in the absence or presence of the inhibitor for 10 min at 37 °C in a buffer containing 50 mM Tris-HCl, pH 8.0, 50 mM NaCl, 7 mM β-mercaptoethanol. Reactions were terminated by the addition of gel loading buffer contained 10% formamide, 7 M carbamide, 0.1% xylene cyanol, and 0,1% bromophenol blue. The samples were heated at 90 °C for 7 min before loading on the gel. The reaction products were separated by electrophoresis in a 20% denaturing PAGE with 7 M carbamide. A Typhoon FLA 9500 phosphorimager (GE Healthcare) was used for gel scanning and imaging. Each experiment was carried out in three independent replicates. The data were analyzed with QuantityOne 4.6.7 software.

[4] = biological target: TDP1 (Homo sapiens, UniProt Q9NUW8); test: Real-time fluorescence detection of TDP1 activity (FAM/BHQ1 oligonucleotide biosensor); assay type: biochemical
Source text: For real-time detection of TDP1 activity, we used the oligonucleotide biosensor based on the ability of TDP1 to remove fluorophore quenchers from the 3′-end of DNA [29]. The hexadecameric oligonucleotide carried 5(6)-carboxyfluorescein (FAM) at the 5′-end and fluorophore quencher BHQ1 (Black Hole Quencher-1) at the 3′-end. TDP1 inhibitors prevent the removal of fluorophore quenchers, thus reducing fluorescence intensity.
TDP1 activity was detected, as described by intensity measurement in a reaction of quencher removal from a fluorophore quencher–coupled DNA oligonucleotide catalyzed by TDP1. The reaction was carried out at different concentrations of inhibitors (the control samples contained 1% of DMSO). The reaction mixtures contained TDP1 buffer (50 mM Tris-HCl pH 8.0, 50 mM NaCl, and 7 mM β-mercaptoethanol), 50 nM biosensor, and an inhibitor being tested. Purified TDP1 (1.5 nM) triggered the reaction. The biosensor (5′-[FAM] AAC GTC AGGGTC TTC C [BHQ]-3′) was synthesized in the Laboratory of Nucleic Acid Chemistry at the Institute of Chemical Biology and Fundamental Medicine (Novosibirsk, Russia).
The reactions were incubated on a POLARstar OPTIMA fluorimeter (BMG LABTECH, GmbH, Ortenberg, Germany) to measure fluorescence every 60 s (ex. 485/em. 520 nm) during the linear phase (here, data from minute 0 to minute 8). The values of IC50 were determined using a six-point concentration response curve in a minimum of three independent experiments and were calculated using MARS Data Analysis 2.0 (BMG LABTECH, Ortenberg, Germany).

[5] = concentration that inhibits the activity of the enzyme by 50%, read-out: TDP1 IC50
[6] = read-out: IC50 (Tdp1, Table S4)

Chain of TDP1 (Q9NUW8 whole entry): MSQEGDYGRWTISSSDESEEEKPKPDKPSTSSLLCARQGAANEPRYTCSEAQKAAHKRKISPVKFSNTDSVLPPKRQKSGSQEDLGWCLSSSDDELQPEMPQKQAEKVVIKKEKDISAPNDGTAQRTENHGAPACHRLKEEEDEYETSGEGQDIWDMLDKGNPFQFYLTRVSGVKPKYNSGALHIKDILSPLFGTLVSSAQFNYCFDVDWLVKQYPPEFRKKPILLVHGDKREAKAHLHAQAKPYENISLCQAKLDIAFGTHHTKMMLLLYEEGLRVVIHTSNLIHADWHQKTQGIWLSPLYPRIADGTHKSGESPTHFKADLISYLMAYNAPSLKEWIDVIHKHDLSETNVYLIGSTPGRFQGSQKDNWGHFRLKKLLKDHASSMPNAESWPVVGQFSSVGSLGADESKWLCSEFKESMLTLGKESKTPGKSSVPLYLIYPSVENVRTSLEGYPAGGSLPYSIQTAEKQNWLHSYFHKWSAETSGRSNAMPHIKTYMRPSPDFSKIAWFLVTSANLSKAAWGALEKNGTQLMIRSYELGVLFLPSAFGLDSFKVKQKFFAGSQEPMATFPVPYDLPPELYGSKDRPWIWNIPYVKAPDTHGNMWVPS

Row | SMILES | CC50 at 72 h [1] [nM] | CC50 at 72 h [2] [nM] | Tdp2 activity, c 200 µM [3] | Tdp2 (inhibitor concentration 1 mM) [3] | remaining activity at 1000 µM [3] [%] | IC50 [4, 5] [nM] | melting point | IC50 [4, 6] [nM]
1 | C[C@H](CCC(=O)NCCc1c[nH]c2ccccc12)[C@H]1CC[C@H]2[C@@H]3CC[C@@H]4C[C@H](OCc5ccccc5)CC[C@]4(C)[C@H]3C[C@H](OCc3ccccc3)[C@]12C [Compound 4, N-(2″-(1H-Indol-3′-yl)ethyl)-3α,12α-dibenzyloxy-5β-cholane-24-amide] | > 100000 | > 100000 | + | + | 35 ± 4 | 750 ± 170 |  | 
2 | C[C@H](CCC(=O)N/N=C/c1ccc(Br)cc1)[C@H]1CC[C@H]2[C@@H]3CC[C@@H]4C[C@H](OCc5ccccc5)CC[C@]4(C)[C@H]3C[C@H](OCc3ccccc3)[C@]12C [Compound 18, N’-(4″-Bromobenzylidene)-3α,12α-dibenzyloxy-5β-cholan-24-hydrazide] |  |  | + | + | < 50 | 510 ± 210 | 147.7 to 150 °C | 
3 | C[C@H](CCC(=O)O/N=C(\N)Cc1ccc(Br)cc1)[C@H]1CC[C@H]2[C@@H]3CC[C@@H]4C[C@H](OCc5ccccc5)CC[C@]4(C)[C@H]3C[C@H](OCc3ccccc3)[C@]12C [Compound 12] |  |  | + | + | < 50 | 320 ± 130 | 80.2 to 83.9 °C | 
4 | C[C@H](CCC(=O)NCCc1c[nH]c2ccccc12)[C@H]1CC[C@H]2[C@@H]3CC[C@@H]4C[C@H](OCc5ccccc5)CC[C@]4(C)[C@H]3CC(=O)[C@]12C [Compound 6, N-(2″-(1H-Indol-3′-yl)ethyl)-3α-benzyloxy-12-oxo-5β-cholane-24-amide] | > 100000 | > 100000 | + | + | 45 ± 4 | 590 ± 130 |  | 
5 | C[C@H](CCC(=O)O)[C@H]1CC[C@H]2[C@@H]3CC[C@@H]4C[C@H](OCc5ccccc5)CC[C@]4(C)[C@H]3CC(=O)[C@]12C [Compound 3, 3α-Benzyloxy-12α-oxo-5β-cholan-24-oic Acid] |  |  | + | + |  |  | 147.9 °C | 780
6 | C[C@H](CCC(=O)O)[C@H]1CC[C@H]2[C@@H]3CC[C@@H]4C[C@H](OCc5ccccc5)CC[C@]4(C)[C@H]3C[C@H](OCc3ccccc3)[C@]12C [Compound 1, 3α,12α-Dibenzyloxy-5β-cholan-24-oic acid] |  |  | + | + |  |  | 181.2 °C (dec.) | 440
7 | C[C@H](CCc1nnc(-c2ccc(Br)cc2)o1)[C@H]1CC[C@H]2[C@@H]3CC[C@@H]4C[C@H](OCc5ccccc5)CC[C@]4(C)[C@H]3C[C@H](OCc3ccccc3)[C@]12C [Compound 19, 2′-(24-Nor-3α,12α-dibenzyloxy-5β-cholan-23-yl)-5′-(4″-bromophenyl)-1′,3′,4′-oxadiazole] |  |  |  |  | < 50 | 1010 ± 430 | 131.4 °C (dec.) | 
8 | COC(=O)CC[C@@H](C)[C@H]1CC[C@H]2[C@@H]3CC[C@@H]4C[C@H](OCc5ccccc5)CC[C@]4(C)[C@H]3C[C@H](OCc3ccccc3)[C@]12C [Compound 16, Methyl 3α,12α-Dibenzyloxy-5β-cholan-24-oate] |  |  | - | - |  |  | 93.3 to 93.7 °C | 
9 | C[C@H](CCC(=O)O/N=C(\N)c1ccc(Br)cc1)[C@H]1CC[C@H]2[C@@H]3CC[C@@H]4C[C@H](OCc5ccccc5)CC[C@]4(C)[C@H]3C[C@H](OCc3ccccc3)[C@]12C [Compound 14] |  |  | + | + | < 50 | 330 ± 150 | 144.5 to 147.4 °C | 
10 | C[C@H](CCC(=S)Nc1ccc(Br)cc1)[C@H]1CC[C@H]2[C@@H]3CC[C@@H]4C[C@H](OCc5ccccc5)CC[C@]4(C)[C@H]3C[C@H](OCc3ccccc3)[C@]12C [Compound 11, N-(4′-Bromophenyl)-3α,12α-dibenzyloxy-5β-cholane-24-thioamide] |  |  |  |  |  |  | 58 °C (dec.) | 
11 | C[C@H](CCC(=O)NN)[C@H]1CC[C@H]2[C@@H]3CC[C@@H]4C[C@H](OCc5ccccc5)CC[C@]4(C)[C@H]3C[C@H](OCc3ccccc3)[C@]12C [Compound 17, 3α,12α-Dibenzyloxy-5β-cholan-24-hydrazide] |  |  | + | + | > 50 | 230 ± 80 | 179 to 180 °C | 
12 | C[C@H](CCC(=O)Nc1ccc(Br)cc1)[C@H]1CC[C@H]2[C@@H]3CC[C@@H]4C[C@H](OCc5ccccc5)CC[C@]4(C)[C@H]3CC(=O)[C@]12C [Compound 9, N-(4′-Bromophenyl)-3α-benzyloxy-12-oxo-5β-cholane-24-amide] | > 100000 | > 100000 | + | + | 39 ± 6 | 710 ± 340 |  | 
13 | C[C@H](CCC(=O)O)[C@H]1CC[C@H]2[C@@H]3CC[C@@H]4C[C@H](OCc5ccccc5)CC[C@]4(C)[C@H]3C[C@H](O)[C@]12C [Compound 2, 3α-Benzyloxy-12α-hydroxy-5β-cholan-24-oic Acid] |  |  | + | + |  |  | 86 °C (dec.) | 18300
14 | C[C@H](CCc1nc(Cc2ccc(Br)cc2)no1)[C@H]1CC[C@H]2[C@@H]3CC[C@@H]4C[C@H](OCc5ccccc5)CC[C@]4(C)[C@H]3C[C@H](OCc3ccccc3)[C@]12C [Compound 13, 5′-(24-Nor-3α,12α-dibenzyloxy-5β-cholan-23-yl)-3′-(methyl(4″-bromophenyl))-1′,2′,4′-oxadiazole] |  |  | - | - | > 50 | 530 ± 230 |  | 
15 | C[C@H](CCc1nc(-c2ccc(Br)cc2)no1)[C@H]1CC[C@H]2[C@@H]3CC[C@@H]4C[C@H](OCc5ccccc5)CC[C@]4(C)[C@H]3C[C@H](OCc3ccccc3)[C@]12C [Compound 15, 5′-(24-Nor-3α,12α-Dibenzyloxy-5β-cholan-23-yl)-3′-(4″-bromophenyl)-1′,2′,4′-oxadiazole] |  |  | - | - | > 50 | 420 ± 300 | 130.2 to 135.5 °C | 
16 | C[C@H](CCC(=O)Nc1ccc(Br)cc1)[C@H]1CC[C@H]2[C@@H]3CC[C@@H]4C[C@H](OCc5ccccc5)CC[C@]4(C)[C@H]3C[C@H](OCc3ccccc3)[C@]12C [Compound 7, N-(4′-Bromophenyl)-3α,12α-dibenzyloxy-5β-cholane-24-amide] |  |  | + | + | 44 ± 5 | 970 ± 460 | 186.2 to 191.3 °C | 
